Source: ChEMBL document CHEMBL5360532, “Current scenario of quinolone hybrids with potential antibacterial activity against ESKAPE pathogens” (Eur J Med Chem, 2023)
Values after ≈ are worked out from the molar mass of the structure shown.

Key:
Assay type in all cases: functional
[1] = tested on: Mycobacterium tuberculosis; test: Antimycobacterial activity against multidrug resistant Mycobacterium tuberculosis assessed as bacterial growth inhibition by agar cup diffusion assay
[2] = tested on: Mycobacterium tuberculosis; test: Antimycobacterial activity against extensive drug resistant Mycobacterium tuberculosis assessed as bacterial growth inhibition by agar cup diffusion assay
[3] = tested on: Mycobacterium tuberculosis; test: Potency index, ratio of ciprofloxacin MIC to test compound MIC for antimycobacterial activity against multidrug resistant Mycobacterium tuberculosis assessed as bacterial growth inhibition by LJ slant assay
[4] = tested on: Mycobacterium tuberculosis; test: Potency index, ratio of ciprofloxacin MIC to test compound MIC for antimycobacterial activity against extensive drug resistant Mycobacterium tuberculosis assessed as bacterial growth inhibition by LJ slant assay

Row | Compound | MIC [1] [µg/mL] | MIC [2] [µg/mL] | Ratio [3] | Ratio [4]
1 | O=C(CN1CCN(c2cc3c(cc2F)c(=O)c(C(=O)O)cn3C2CC2)CC1)Nc1nnc(-c2ccccc2)s1 | 8 (≈ 14.6 µM) | 8 (≈ 14.6 µM) | – | –
2 | C=CCn1c(SCC(=O)N2CCN(c3cc4c(cc3F)c(=O)c(C(=O)O)cn4C3CC3)CC2)nnc1-c1ccccc1 | 4 (≈ 6.8 µM) | 4 (≈ 6.8 µM) | – | –
3 | O=c1c(-c2nnc(S)o2)cn(C2CC2)c2cc(N3CCNCC3)c(F)cc12 | – | – | >=32 | >=32
